Laboratory results reported in patent publication US20210302366A1, “Method for Pathogen Detection” (priority 2020, published 2021).
Converted amounts (≈) assume the structure as drawn.

How the values were obtained:
[1] = tested on: Staphylococcus aureus; assay: pathogen detection chip (differential drain current) with agar plating, Staphylococcus aureus; assay type: cell-based; settings: for blips/sub-blips identified in the electrical signal: first 8 hours of culturing; for biological sample resistant or sensitive to the interacting agent: from electrical signal pattern and CFU; for trend of number of colony-forming unit (CFU) from agar plating: over the course of culturing
Description: (§1) The drain voltage Vds may cause a drain current Ids to be measured as the electrical signal. In some embodiments, during the course of culturing the biological sample 207A, metabolites and/or the ions of the biological sample 207A generated due to the interaction of which with the interacting agents 207B may cause the front gate voltage Vgs-fg to change and thus the change of drain voltage Vds as well as the measured drain current Ids. By analyzing the electrical signal of the differential drain current ΔIds, several characteristics of the biological sample 207A can be determined within a short time frame and at a relative low sample concentration. In some embodiments, the sensor 20 may occupies a footprint of 5 μm by 5 μm. A bias of +1.8V can be applied to the first gate 209 and a bias of −0.5V can be applied to the second gate 209′ during the measurement of drain current Ids.
(§2) Two approaches can be used to measure the differential drain current ΔIds. One approach is to subtract the drain current Ids measured from a control group of the sensor 20 where no biological sample is introduced into the culturing medium 207 from the drain current Ids measured from an experimental group of the sensor 20 where biological sample is introduced into the culturing medium 207 during the course of culturing. The other approach is to subtract the initial drain current Ids (e.g. at t=0) from the drain current Ids measured from an experimental group of the sensor 20 where biological sample is introduced into the culturing medium 207 during the course of culturing. The latter approach can be adopted for real-time pathogen detection, and the former approach can be adopted in a more systematic study where the concentration of biological sample and the pH value of the culturing medium 207 can be recorded simultaneously.
(§3) To prepare the culturing medium, 200 μL of non-buffered LB broth having predetermined dosages (including zero dosage) of interacting agent was inoculated with predetermined concentration of Staphylococcus aureus and cultured at a temperature of 37° C. The sample was subjected to the pathogen detection using the pathogen detection chip and sensor described herein with a front gate voltage of +1.8V and a back gate voltage of −0.5V for drain current Ids measurement at predetermined time points (e.g., at each hour). The differential drain current ΔIds can be determined using the two approaches previously described, including (1) subtracting the drain current Ids measured from a control group from the drain current Ids measured from an experimental group during the course of culturing; and (2) subtracting the initial drain current Ids (e.g. at t=0) from the drain current Ids measured from an experimental group during the course of culturing. When the former approach is taken, the concentration of biological sample can be determined by agar plating under the same environmental condition.
Sample preparation and measurement condition can be referred to those in Example 2A and are not repeated here for brevity.

[2] = tested on: Pseudomonas aeruginosa; assay: pathogen detection chip (differential drain current) with agar plating, Pseudomonas aeruginosa; assay type: cell-based; settings: for biological sample resistant or sensitive to the interacting agent: from electrical signal pattern and CFU; for trend of number of colony-forming unit (CFU) from agar plating: over the course of culturing
Description: as §1, §2
as §3, with “Pseudomonas aeruginosa” for “Staphylococcus aureus”
Sample preparation and measurement condition can be referred to those in Example 3A and are not repeated here for brevity. […] For example, in Example 3B, a differential drain current ΔIds of about 0.16 μA can be identified as a blip in the electrical signal.

[3] = tested on: Escherichia coli; assay: pathogen detection chip (differential drain current) with agar plating, Escherichia coli; assay type: cell-based; settings: for differential drain current ΔIds, local maximum: 2nd hour of culturing
Description: as §1, §2
as §3, with “Escherichia coli” for “Staphylococcus aureus”
Sample preparation and measurement condition can be referred to those in Example 4A and are not repeated here for brevity. […] For example, in Example 4B, a differential drain current ΔIds of greater than 0.07 μA (e.g., about 0.08 μA) can be identified as a blip in the electrical signal. In addition, a differential drain current ΔIds of about 0.04 μA can be identified as a sub-blip at the 6th hour. As previously described, electrical signal lower than 0.03 μA is not considered as a blip or a sub-blip in some of the embodiments.

[4] = tested on: Escherichia coli K12; assay: minimum inhibitory concentration (MIC) test; assay type: cell-based
[5] = tested on: Escherichia coli pku57; assay: microbe, parasite or virus in culture
[6] = tested on: Klebsiella pneumoniae; assay: pathogen detection chip (differential drain current) with agar plating, Klebsiella pneumoniae; assay type: cell-based
[7] = from electrical signal pattern and CFU
[8] = throughout the first 9 hour of culturing

Question: With `CC1(C)S[C@@H]2[C@H](NC(=O)[C@H](N)c3ccccc3)C(=O)N2[C@H]1C(=O)O` [Ampicillin] as the compound, how does the “blips/sub-blips identified in the electrical signal” value (shortened to “blips/sub-blips identified”) [1] read?
Answer: no blips or sub-blips (a differential drain current ΔIds showing local maximum lower than 0.03 μA is not identified as a blip or a sub-blip)

Question: What about the “biological sample resistant or sensitive to the interacting agent” value (from here on “biological sample resistant or sensitive”) [1] of the same compound?
Answer: sensitive

Question: What about the “trend of number of colony-forming unit (CFU) from agar plating” value (“trend of number of colony-forming unit” for short) [1] of the same compound?
Answer: monotonic decreasing

Question: And the “differential drain current ΔIds” value ([1]; throughout the first 8 hour of culturing)?
Answer: lower than 0.03 μA

Question: What about the “differential drain current ΔIds, blip” value ([2]; 1st hour of culturing) of the same compound?
Answer: about 0.16 μA

Question: What about the “biological sample resistant or sensitive” value [2] of the same compound?
Answer: resistant

Question: What about the “trend of number of colony-forming unit” value [2] of the same compound?
Answer: monotonic increasing

Question: Which results are given for `NC[C@H]1O[C@H](O[C@H]2[C@H](O)[C@@H](O[C@H]3O[C@H](CO)[C@@H](O)[C@H](N)[C@H]3O)[C@H](N)C[C@@H]2N)[C@H](O)[C@@H](O)[C@@H]1O` [Kanamycin]?
Answer: differential drain current ΔIds, local maximum [3]: about 0.08 μA; differential drain current ΔIds, sub-blip ([3]; 6th hour of culturing): about 0.04 μA; MIC [4]: 25 mg/L (≈ 51.6 µM); MIC [5]: < 50 mg/L

Question: For `CN[C@@H]1[C@H](O)[C@H](NC)[C@H]2O[C@@]3(O)C(=O)C[C@@H](C)O[C@H]3O[C@@H]2[C@H]1O` [Spectinomycin], which “differential drain current ΔIds, local maximum” value [3] is on record?
Answer: about 0.05 μA

Question: And the “biological sample resistant or sensitive” value [3, 7]?
Answer: sensitive

Question: What about the “trend of number of colony-forming unit” value ([3]; over the course of culturing) of the same compound?
Answer: neither increasing or decreasing

Question: And the “differential drain current ΔIds” value [3, 8]?
Answer: lower than 0.07 μA

Question: For Gentamicin, which “differential drain current ΔIds, blip” value ([6]; 3rd hour of culturing, LB broth, 37° C.) is on record?
Answer: about 0.15 μA

Question: And the “biological sample resistant or sensitive” value [6, 7]?
Answer: resistant

Question: What about the “trend of number of colony-forming unit” value ([6]; over the course of culturing) of the same compound?
Answer: monotonic increasing

Question: What about the “blips/sub-blips identified” value [1] of the same compound?
Answer: a blip at the 2nd hour and a sub-blip at the 5th hour

Question: What about the “biological sample resistant or sensitive” value [1] of the same compound?
Answer: resistant

Question: And the “trend of number of colony-forming unit” value [1]?
Answer: monotonic increasing

Question: And the “blips/sub-blips identified” value ([2]; first 9 hour of culturing)?
Answer: no blips or sub-blips (a differential drain current ΔIds showing local maximum lower than 0.03 μA is not identified as a blip or a sub-blip)

Question: What about the “biological sample resistant or sensitive” value [2] of the same compound?
Answer: sensitive

Question: And the “trend of number of colony-forming unit” value [2]?
Answer: monotonic decreasing

Question: And the “differential drain current ΔIds” value [2, 8]?
Answer: lower than 0.03 μA
